In test [1] the test system is de novo pyrimidine nucleotide synthesis in HT1080 cells. Nature of the test: 15N-glutamine tracing study: pyrimidine nucleotide synthesis metabolites by LC-MS/MS. Type of test: cell-based, human. The method, then:
HT1080 cells in log phase growth were seeded in 10 cm dishes (4×10^6 cells/dish) and cultured in regular DMEM supplemented with 10% fetal bovine serum (FBS), penicillin (50 IU/mL), and streptomycin (50 μg/mL). After overnight incubation, the culture medium was replenished with glutamine free DMEM containing 1 g/L glucose, 10% fetal bovine serum (FBS), penicillin (50 IU/mL), streptomycin (50 μg/mL) and 1 mM ^15N-glutamine (Sigma, Cat #: 490024). After culturing for the indicated time in the presence of compounds or vehicle control (0.5% DMSO), the cells were washed once with cold PBS (5 mL) and harvested and lysed in cold distilled H2O (0.5 mL) with −80° C. methanol (1 mL) using a plastic cell scraper. The cell lysates were then centrifuged at 10,000×g for 15 minutes at 4° C., and supernatant collected for LC-MS/MS analysis of the ^15N-labelled de novo pyrimidine synthesis metabolites.
LC-MS/MS Detection of Metabolites. Quantification of ^15N-labelled de novo pyrimidine synthesis metabolites was carried out on an Accela pump and a PAL auto-sampler coupled to a TSQ Quantum Ultra mass spectrometer. The mass spectrometer was equipped with a heated electrospray ionization source operated in negative-ion mode (Thermo Fisher Scientific, Waltham, Mass.). The ion spray voltage was set at 2500 V, capillary temperature at 350° C., vaporizer temperature at 300° C.; sheath gas pressure at 50 units and auxiliary gas pressure at 5 units. A Thermo Fisher Scientific Hypercab column (3μ, 50×2.1 mm) was used and maintained at 50° C. for metabolite separation. Mobile phase A was 10 mM NH4HCO3 in water, pH 9.4, and mobile phase B was 10 mM NH4HCO3 in ACN-water (9:1). The flow rate was set at 0.50 mL/min.

The test system of test [2] is MOLM-13 AML cells. Nature of the test: Leukemia cell proliferation, comparison of DHODH inhibitors. It counts as cell-based. As to conditions: Homo sapiens, MOLM-13, 96 h, proliferation (FIG. 4d).
Test [3] has as its system MOLT-4 human ALL tumor cells. Nature of the test: MOLT-4 human acute lymphoblastic leukemia lethality model. Type of test: in vivo. As to conditions: NOD/SCID mice, 10 mg/kg qd. Here is the method: Doxorubicin was tested at the highest dose tolerated by NOD/SCID mice.
Systemic Leukemia Lethality Model: Male NOD-SCID mice were inoculated with MOLT-4 human ALL tumor cells (1×10^7 cells in 200 μL PBS) by intravenous (IV) injection. […] The mice were dosed and observed until moribund, at which time they were euthanized. At 2- and 4-weeks post-inoculation, whole blood was obtained from 5 mice per group by retro-orbital bleeding, stained with an antibody against human CD45, and the number of CD45-positive cells was determined by FACs. Data in FIG. 5b represents % of human CD45+ from blood of each mouse; where * indicates p<0.05, one way ANOVA, with multiple comparisons vs vehicle.

For test [4], the target named is panel of biologically important human kinases. Nature of the test: Kinase panel. As to conditions: off-target panel. It counts as biochemical. The text has this: The side-effects associated with these DHODH inhibitors are believed to be due to off-target activities such as kinase inhibition [21; 22]. […] The antiviral compound GSK983 was recently reported as a DHODH inhibitor [23]. […] FACS analysis was done on FACSCalibur (FIG. 8).

The test system of test [5] is DHODH. Nature of the test: Serum DHO in NF2 clinical study subjects. Type of test: in vivo, human. As to conditions: three additional NF2 subjects (FIG. 3b).
For test [6], the system named is de novo pyrimidine nucleotide synthesis in HT1080 cells. Kind of test: 15N-glutamine tracing study: pyrimidine nucleotide synthesis metabolites by LC-MS/MS. It counts as cell-based, human. As to conditions: 100 nM, 8 hours, vs 0.5% DMSO, LC/MS (FIG. 1a).
Test [7] concerns the target DHODH (Homo sapiens, UniProt Q02127). Nature of the test: Pull-down with Cpd 1-linked Sepharose beads, Western blot. Type of test: binding. Details: 1 mL of cell lysate solution (2 mg/mL protein) was added to each reaction tube; endogenous in cells. The text has this: Western Blot Analysis. […] Subsequently, the conditioned medium was harvested by mixing with equal volume of 2×SDS-PAGE sample buffer (Bio-Rad). […] Proteins in the samples were resolved on a Tris-glycine Criterion gel (Bio-Rad) and transferred onto a 0.45 μm nitrocellulose membrane. […] Antibody (C1) specific for VEGFA was purchased from Santa Cruz Biotechnologies, CA (1:200 dilution); Antibody specific for human β-actin was purchased from Abcam (1:10000 dilution); Antibody specific for V5-tag was purchased from Invitrogen (1:5000 dilution). […] Immunodetection was done using the corresponding secondary antibodies conjugated with infrared dyes or horseradish peroxide. The expression levels of proteins were detected with Odyssey (LI-COR) or using enhanced chemiluminescence (Pierce, Rockford, Ill.).
The wet Sepharose 6B was diluted with pH 11 phosphate/NaOH buffer (5 mL). […] The reaction mixture was stirred further 24 hours at 40° C.
Cells in log phase growth were washed with cold PBS once and then collected by trypsin digestion. […] Proteins in the eluted samples were identified via LC-MS/MS or western blot analysis.
Background: A western blot detects proteins with antibodies after separation by electrophoresis.

[8] abbreviates: cells treated 100 nm for 8 hours in presence of 15N-glutamine, BLDL = Below Detection Limits.

pIC50: −log10 of the molar value.

Chain of DHODH (Homo sapiens, UniProt Q02127) (Q02127 whole entry): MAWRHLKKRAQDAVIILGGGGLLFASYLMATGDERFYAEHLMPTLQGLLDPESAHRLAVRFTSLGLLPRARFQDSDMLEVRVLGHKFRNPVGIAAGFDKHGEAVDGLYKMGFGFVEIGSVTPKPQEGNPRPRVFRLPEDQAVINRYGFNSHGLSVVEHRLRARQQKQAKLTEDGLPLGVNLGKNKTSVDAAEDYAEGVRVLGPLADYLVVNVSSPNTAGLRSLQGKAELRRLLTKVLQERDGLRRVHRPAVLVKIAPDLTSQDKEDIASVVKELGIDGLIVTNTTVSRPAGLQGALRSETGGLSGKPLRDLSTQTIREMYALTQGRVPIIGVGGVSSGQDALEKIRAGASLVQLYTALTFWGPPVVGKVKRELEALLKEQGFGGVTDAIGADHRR

In the case of `COc1ccc([C@H]2c3[nH]c4ccc(Cl)cc4c3CCN2C(=O)Oc2ccc(Cl)cc2)cc1` [Cpd 1, 4-chlorophenyl (S)-6-chloro-1-(4-methoxyphenyl)-1,3,4,9-tetrahydro-2H-pyrido[3,4-b]indole-2-carboxylate], the “de novo pyrimidine synthesis (15N-labelled CTP, UTP and UMP)” value in test [1] (HT1080 cells, LCMS (FIG. 1b)) is listed as “inhibits de novo pyrimidine synthesis”. For the same molecule, in test [1] (cells treated 100 nm for 8 hours in presence of 15N-glutamine), the “^15N-Orotate” value was found to be 44.8 ± 6.1 µM. For the same molecule, in test [1] (setting [8]), the “^15N-DHO” value stood at 18.1 ± 5.5 µM and the “^15N-UMP” value is on record as “BLDL”. In addition, the “pyrazofurin-MP-induced increase of 15N-orotate” value in test [1] (co-treatment with pyrazofurin-MP, HT1080 cells (FIG. 1c)) is “blocked”. For the same molecule, the pIC50 (in general, the IC50 on a negative log10 scale, so that one unit is a factor of ten) in test [2] is around 9.00. Further, the “number of circulating MOLT-4 cells (CD45+)” value in test [3] (compared to doxorubicin (FIG. 5b)) was “significantly reduced”. Besides, the “median survival time (MST)” value in test [3] (vehicle 46 days, p<0.05) worked out at 136 days. Also, in test [4], the kinase enzyme activity entry was “lack of inhibition of kinase enzyme activity”. The “serum DHO” value in test [5] was “increased serum DHO”. Also, the “total levels of deoxy-pyrimidine nucleotides (dCTP and dTTP) but not deoxy-purine nucleotides dATP and dGTP” value in test [6] is “selectively decreased”. The “competitive elution of DHODH from Cpd 1 beads by free compound” value in test [7] (Competing Off (FIG. 2b)) is reported as “selectively eluted”. Besides, the “binding of DHODH to Cpd 1-linked beads after preincubation with free compound” value in test [7] (Competing On, Western blot (FIG. 2a)) is listed as “inhibited”.

(Values after patent US11458126B2, “DHODH inhibitor for use in treating hematologic cancers” (PTC THERAPEUTICS, INC., priority 2017, dated 2022).)
